Consider three compounds from paper PMC10322781 (Archives of Toxicology, 2023).

The test system of data set [1] is LS180 cells. Format: in vitro ADME. Particulars: human. The protocol:
The UPLC-MS/MS system consisted of a triple stage quadrupole mass spectrometer (Waters Xevo TQ-S, Milford, MA, USA) and an Acquity Classic UPLC® (Waters). Mass spectrometric analysis was performed by selective reaction monitoring using positive electrospray ionization. […] Because of their considerable molecular size, rifamycins were chromatographically separated on a Waters Peptide BEH C18 Column (300 Å, 1.7 μm, 2.1 mm × 50 mm) to foster optimal mass transfer kinetics. The mobile phase was composed of H20/ACN (95/5, v/v) + 0.1% FA (eluent A) and ACN + 0.1% FA (eluent B). […] The total run time was 4 min, and the column was heated to 60 °C. The injection volume was set to 20 μL with a flow rate of 0.5 mL/min. A pellet of untreated LS180 cells (500,000 cells/sample) was used for calibration standards and QC standard. […] Subsequently, proteins were precipitated with 110 μL ACN (uptake samples) or 100 μL ACN (calibration standards and QC standards). […] To determine intracellular rifamycin concentrations, measured compound concentrations were normalized to the total pellet volume. This was achieved by multiplying the measured mean cellular volume of a LS180 cell (CASY cell counter, Schärfe System, Reutlingen, Germany) by the mean cell number of four wells of an identically prepared and treated cell culture plate.

Data set [2] has as its system CYP3A4. The procedure: (§1) A random hexamer primer was used according to the manufacturer’s instructions. […] Experiments were performed in four independent biological replicates with technical duplicates (PCR runs) for each concentration.
The test system of data set [3] is ABCB1. The experiment in a line: ABCB1 mRNA expression in LS180 cells (real-time RT-PCR). It is filed as cell-based, human. Particulars: for EC50 at 24 h / EC50 at 96 h / EC50 at 144 h: human, LS180 cells. The procedure:
as §1

Data set [4] concerns CYP3A4. The protocol: To determine CYP3A4 activity in LS180 cells after rifamycin treatment, 20,000 cells per well were seeded into 96-well plates and allowed to grow for 3 days until 70% confluency. […] Cells were washed twice with PBS and then pre-incubated with PBS + 2% FCS for 30 min at 37 °C. PBS was removed and replaced by 50 µL of 3 µM luciferin-IPA (selective CYP3A4 substrate) and incubated for 60 min at 37 °C. After incubation, 25 µL supernatant from each well was transferred to a white 96-well plate and 25 µL detection reagent (containing luciferase) was added. Cells were subsequently incubated for 20 min at room temperature. […] CYP3A4 activity was normalized to untreated controls.
This is another data set of the same source.

In data set [5] the test system is Pgp. The experiment in a line: Induction of Pgp activity in LS180 cells (rhodamine123 efflux, flow cytometry). It is filed as cell-based, human. The following applies: LS180, 144 h exposure; for Emax Pgp activity (activation): fold compared to untreated cells; for EC50 at 144 h: human, LS180 cells, probe rhodamine123 (0.4 µM), with zosuquidar (10 µM), rhodamine123 efflux, read-out: EC50 Pgp activity (activation). The protocol: To assess the induction of Pgp activity, 200,000 LS180 cells per well were seeded in a 6-well plate, cultured for 3 days and subsequently exposed to rifamycins for 144 h. After treatment, cells were harvested and subjected to the rhodamine efflux assay as described previously (Theile et al. [2013]; Weiss et al. [2008]). Briefly, cells were incubated with the fluorescent Pgp substrate rhodamine123 (0.4 µM) on a rotary shaker for 30 min at 37 °C under protection from light. Subsequently, cells were incubated with the selective Pgp inhibitor zosuquidar (10 µM) for 50 min at 37 °C on a rotary shaker. Medium without zosuquidar was used as a negative control. All washing steps were performed with ice-cold PBS at 4 °C. Intracellular rhodamine123 fluorescence was determined using a flow cytometer (MACSQuant analyzer 10, Miltenyi Biotec, Bergisch Gladbach, Germany). Thirty thousand cells were used for the analysis. For data evaluation, the ratio of zosuquidar-inhibited samples to non-inhibited samples of the rifamycin experiment was calculated and normalized to the ratio of untreated cell controls (no rifamycin treatment).
In general terms: In flow cytometry, cells or beads pass a laser one at a time.

Data set [6] relates to mdr1a/b. The experiment in a line: Pgp inhibition calcein assay in P388/dx cells. Format: cell-based, murine. Particulars: for Emax Pgp inhibition: calcein assay, fold compared to untreated cells; for IC50: calcein efflux. The procedure:
To investigate the potential Pgp inhibition by the rifamycins, the murine monocytic leukaemia cell line P388/dx (overexpressing the murine Pgp counterpart mdr1a/b (Boesch et al. [1991])) and the corresponding parental cell line P388 were used (kindly provided by Dr. D. Ballinari; Pharmacia & Upjohn, Milan, Italy). Cells were cultured under standard conditions with RPMI 1640 cell culture medium supplemented with FCS 10%, 2 mM glutamine, […] β-mercaptoethanol, 100 U/mL penicillin, and 100 µg/mL streptomycin sulphate. The culture medium of the P388/dx cell line was additionally supplemented with doxorubicin (final concentration: 0.45 µM) to maintain mdr1a/b expression. One day before the experiments, P388/dx cells were set to doxorubicin-free medium.
Pgp activity was determined using a calcein assay as described previously (Fröhlich et al. [2004]) with zosuquidar (10 µM) as a positive control.

Data set [7] relates to P388 cells. Kind of data set: Calcein assay in parental P388 cells. Format: cell-based, murine.
Data set [8] addresses CYP3A4 (Homo sapiens, UniProt P08684). The following applies: microsomes.
Method: For this purpose, rifamycins were tested between 0.5 to 50 µM. […] A reaction mixture without CYP3A4 was incubated as negative control. Luminescence signals were normalized to the untreated cell control.
Details of data set [9]: method as in Zhang et al. [2008]. The following applies: 300 mg rifabutin; ref Zhang et al. [2008]; cited from earlier work.
For data set [10] the following is noted: cited from earlier work.
Where [11] appears, read: LS180, 24 h, fold induction compared to untreated cells.
The mark [12] stands for this setting: LS180, 96 h, fold induction compared to untreated cells.
Setting [13] is: LS180, 144 h, fold induction compared to untreated cells.
The mark [14] stands for this setting: LS180, 24 h, extracellular concentration.
[15] abbreviates: LS180, 24 h (24*), intracellular concentrations.

Several values for one entry are separate records, joined by “and”; a condition that tells them apart may be missing. Equal values may be shown once.

In general, EC50 refers to the concentration giving half of the maximal effect. Broadly, the IC50 is the concentration that gives 50% inhibition.

Sequence of CYP3A4 (Homo sapiens, UniProt P08684) (P08684 whole entry): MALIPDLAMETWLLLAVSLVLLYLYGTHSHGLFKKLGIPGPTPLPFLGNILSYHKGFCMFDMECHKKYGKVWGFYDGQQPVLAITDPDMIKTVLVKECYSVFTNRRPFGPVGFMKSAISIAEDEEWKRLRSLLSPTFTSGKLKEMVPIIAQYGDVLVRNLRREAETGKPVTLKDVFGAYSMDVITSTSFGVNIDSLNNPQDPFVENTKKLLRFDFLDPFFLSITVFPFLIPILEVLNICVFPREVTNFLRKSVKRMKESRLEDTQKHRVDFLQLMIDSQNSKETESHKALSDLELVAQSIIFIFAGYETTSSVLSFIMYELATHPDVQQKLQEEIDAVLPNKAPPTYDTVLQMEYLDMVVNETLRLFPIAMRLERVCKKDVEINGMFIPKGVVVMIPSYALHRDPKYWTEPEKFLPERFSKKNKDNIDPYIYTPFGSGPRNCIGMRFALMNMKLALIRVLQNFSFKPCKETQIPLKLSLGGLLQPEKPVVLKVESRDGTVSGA

For the compound `CO[C@H]1/C=C/O[C@@]2(C)Oc3c(C)c(O)c4c(c3C2=O)C2=NC3(CCN(CC(C)C)CC3)NC2=C(NC(=O)/C(C)=C\C=C\[C@H](C)[C@H](O)[C@@H](C)[C@@H](O)[C@@H](C)[C@H](OC(C)=O)[C@@H]1C)C4=O` [Rifabutin], the “time to reach intracellular concentration equilibrium” value in data set [1] is recorded as 6 h. The “molar metabolite-to-parent ratio (25-O-deacetyl metabolite)” value in [1] (10 µM) lay within 0.002 to 0.006. Further, the “increase of CYP3A4 mRNA levels” value in [2] is “twofold”. In addition, the “Emax ABCB1 mRNA expression” value in [3] (setting [11]) is listed as 1.4 ± 0.024 fold; in data set [3] (setting [12]), 2.8 ± 0.16 fold; in data set [3] (setting [13]) it was 4.5 ± 0.71 fold. In addition, the EC50 at 24 h in data set [3] (setting [14]) turned out to be 1.1 ± 0.027 µM. This compound also registered an EC50 at 96 h in [3] (LS180, 96 h) of 1.8 ± 1.1 µM. Besides, the EC50 at 144 h in [3] (LS180, 144 h) came out at 1.5 ± 0.72 µM; in data set [5] it was 1.1 ± 0.16 µM. The “concentration dependence of CYP3A4 activity” value in data set [4] is listed as “no concentration dependence”. Also, in data set [4], the “increase in CYP3A4 activity after exposure” value is “no detectable increase”. Moreover, in data set [5], the “Emax Pgp activity (activation)” value turned out to be 2.8 ± 0.48 fold. Moreover, in data set [6], the “Emax Pgp inhibition” value is given as 4.9 ± 1.3 fold. The IC50 was 0.32 ± 0.1 µM in data set [6] and 0.3 µM in data set [6] (listed as rifabutin). For the same compound, the intracellular calcein fluorescence entry in data set [7] is reported as “remained unchanged”. In [8] (human), the “lowering of CYP3A4 activity” value is “approx. 80%”. For the same compound, in data set [9], the “expected drug concentration in the gut lumen” value is reported as “approx. 1.4 mM”. The “effect on dabigatran etexilate kinetics” value in data set [10] (300 mg rifabutin, ref Lutz et al., CPT [2018b]) is on record as “not affected”. Moreover, the “reduction of bioavailability of doravirine” value in [10] (repeated administration of 300 mg rifabutin, ref Khalilieh et al. [2018]) was 50%. In addition, in [10] (repeated administration of 300 mg rifabutin, ref Kraft et al. [2004]), the “reduction of bioavailability of indinavir” value is 34%.

In data set [3] (setting [15]), `CO[C@H]1/C=C/O[C@@]2(C)Oc3c(C)c(O)c4c(O)c(c(/C=N/N5CCN(C)CC5)c(O)c4c3C2=O)NC(=O)/C(C)=C\C=C\[C@H](C)[C@H](O)[C@@H](C)[C@@H](O)[C@@H](C)[C@H](OC(C)=O)[C@@H]1C` [Rifampicin] gave an EC50 of 37 ± 2 µM. In addition, the “Emax ABCB1 mRNA expression” value in [3] (LS180, 24 h (24*), intracellular concentrations, compared to untreated) was 2.6 fold and 2.6 ± 0.068 fold; in data set [3] (setting [11]), 2.6 ± 0.068 fold; in data set [3] (setting [12]), 5.1 ± 0.12 fold; in data set [3] (setting [13]), 7.0 ± 0.53 fold. In addition, the EC50 at 24 h in data set [3] (setting [15]) was 37.4 µM; in [3] (setting [14]), 8.6 ± 0.47 µM. The response in data set [3] (LS180, 96 h) was half-maximal at 1.1 ± 0.056 µM (EC50 at 96 h). The EC50 at 144 h in data set [3] (LS180, 144 h) worked out at 1 ± 0.065 µM; in data set [5] it was 1 ± 0.0014 µM. Moreover, in [5], the “Emax Pgp activity (activation)” value was found to be 3.2 ± 0.37 fold. In data set [6], the “Emax Pgp inhibition” value is recorded as 4.3 ± 0.53 fold. For the same compound, the IC50 in data set [6] was 13 ± 4.1 µM; in data set [6] (listed as rifampicin) it was 12.9 µM. For the same compound, the intracellular calcein fluorescence entry in [7] is on record as “remained unchanged”. Moreover, the “lowering of exposure to indinavir” value in [10] (repetitive administration of 600 mg standard dose of rifampicin, ref Avihingsanon et al. [2012]) was “approx. 90%”. The “lowering of exposure to doravirine” value in data set [10] (repetitive administration of 600 mg standard dose of rifampicin, ref Yee et al. [2017]) is “approx. 90%”.

As for `CN(C)C(=N)N=C(N)N` [metformin], in [8], the “effect on CYP3A4 activity” value is “no effect”.
